According to patent US20220053796A1, “COMPOSITION FOR SUPPORTING ANIMAL WITH CANCER” (MARS, INCORPORATED, priority 2018, published 2022):
Where a name gives a salt, the structure may show the parent alone. Read-outs that look alike come from different tables or passages of the source.

Tests used:
Format in all cases: cell-based, canine
[1] = test system: C2 cancer cell line; experiment: MTT proliferation assay
Description: (§1) Cells were plated at a density of 4×10^3 cells per well on 96-well tissue culture-treated flat bottom plates and incubated overnight in complete medium. Cells were treated the following day with DMSO control or extract using a twofold serial dilution for 8 final concentrations ranging from […] to 100 μg mL-1 for 48 h to assess all extracts for potential effectiveness at reducing cellular proliferation. To quantify cellular proliferation, MTT dye assays were performed by adding 30 μL of MTT dye (5 mg mL-1 in phosphate-buffered saline solution) to each well and incubating at 37° C. for 1 h. Media were then aspirated and the cells were solubilized in 200 μL of isopropanol. The optical density of each well was analyzed on a spectrophotometric plate reader (Epoch; Biotek, Winooski, Vt., USA) at a wavelength of 570 nm.
(§2) Synergy between extracts was examined using combinations of two extracts at six concentrations: 0.8, 1.7, 3.1, 6.3, 12.5, or 25 μg mL-1. The percent proliferating cells of control for each treatment was pooled from all experiments and is reported as mean f standard error of the mean.
(§3) Raw data from proliferation assays (optical density of each well) were normalized to the vehicle alone treatment for individual assays, considered to represent 100% proliferating cells (single or combined treatment). The % proliferating cells was then averaged across each replicate. The IC50 for each extract was then calculated across experiments by Probit analysis. The compound interactions were calculated by multiple drug effect analysis using CalcuSyn software (v.2.11; Biosoft, Cambridge, GB, United Kingdom).

[2] = test system: HMPOS; experiment: ATPlite proliferation assay; settings: Canis lupus familiaris, 72 h
Description: (§4) The different cancer cell lines were plated at the optimal number of cells per well in 90 μL of appropriate medium/well in flat-bottom microtitration 96-well plates. Plates were incubated at 37° C. for 24 hours before treatment in drug free culture medium. After a first dilution process, 10 μl of the test substances (single) were added on plate containing cells 24h after plating. Tumor cell lines were incubated for 72 h at 37° C. under 5% CO2 with 9 concentrations of each natural extract in 1:2 dilution steps. Top dose was 100 μg/ml for each plant extract and 1 μM for doxorubicin. Each concentration was tested in triplicates. Dilutions of each test substance as well as distribution to plates containing cells were performed manually. At least 2 independent experiments were performed for each plant extract. Control cells were treated with vehicles alone. […]
(§5) At the end of treatments, the cytotoxic activity of tested substances was evaluated by ATP-Lite assay (Ref. 6016949, Perkin-Elmer, and Batch 69-12172). […] This ATP level is quantified by the luminescence emitted by the firefly luciferase, through an ATP-dependent reaction. […] After, the plate was left for ten minutes in the dark and luminescence was measured as LV (Luminescence Value).
Chou-Tallalay CI corresponds to the combination indexes calculated using the appropriate algorithms. […]

[3] = test system: D17 cancer cell line; experiment: MTT proliferation assay; settings: Canis lupus familiaris
Description: as §1, §2, §3

[4] = test system: CMT-12 cancer cell line; experiment: MTT proliferation assay; settings: Canis lupus familiaris
Description: as §1, §2, §3

[5] = test system: CF41.Mg cell line; experiment: ATPlite proliferation assay; settings: Canis lupus familiaris, 72 h
Description: as §4, §5

[6] = read-out: chemotherapy IC50 (mass concentration in brackets)

IC50 ([3]; read-out: chemotherapy IC50)	IC50 [3, 6]	IC50 ([4]; read-out: chemotherapy IC50)	IC50 [4, 6]	Molecule	chemotherapy IC50 (mass concentration in brackets) [1]	IC50 ([1]; read-out: chemotherapy IC50)	IC50 [2]	IC50 [5]
–	–	–	–	toceranib phosphate	nM (6.2 ng mL^−1)	12.5 nM	–	–
500 nM	0.272 µg/mL	300 nM	0.163 µg/mL	COc1cccc2c1C(=O)c1c(O)c3c(c(O)c1C2=O)C[C@@](O)(C(=O)CO)C[C@@H]3O[C@H]1C[C@H](N)[C@H](O)[C@H](C)O1 [doxorubicin hydrochloride]	–	–	11 nM	375 ± 361 nM
